Holding throughout (experiment): KinomeScan profiling
What all share (assay type): binding

Assay [1] deals with PRP4 (Homo sapiens, UniProt Q13523). The note with it: PRP4, 1 μM; read-out: % control. The procedure, abridged: (§1)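 Luminescence (RLU) was converted to percent of control, with DMSO set as 100% and a reference compound as 0%. Test compounds were run at 1 μM against 468 kinases. Kinases showing below 35% of control were scored as bound.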
Assay [2] deals with T1, AURKA (Homo sapiens, UniProt O14965).
T1 construct: purchased KinomeScan®
T1 sequence (O14965 1-403): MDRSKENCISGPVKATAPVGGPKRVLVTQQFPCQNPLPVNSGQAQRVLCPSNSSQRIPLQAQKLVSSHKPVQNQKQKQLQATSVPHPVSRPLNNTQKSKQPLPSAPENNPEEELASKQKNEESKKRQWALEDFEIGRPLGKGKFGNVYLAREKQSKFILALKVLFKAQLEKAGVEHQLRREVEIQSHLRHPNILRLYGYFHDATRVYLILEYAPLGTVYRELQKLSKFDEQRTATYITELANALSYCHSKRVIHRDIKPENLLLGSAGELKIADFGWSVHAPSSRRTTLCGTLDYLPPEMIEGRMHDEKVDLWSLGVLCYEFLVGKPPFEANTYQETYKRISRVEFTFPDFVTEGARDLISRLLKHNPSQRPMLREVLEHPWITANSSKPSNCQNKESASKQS
As to conditions: read-out: % control. Summed up: as §1

For assay [3], the target named is T2, NEK3 (Homo sapiens, UniProt P51956).
T2 sequence (P51956 1-506): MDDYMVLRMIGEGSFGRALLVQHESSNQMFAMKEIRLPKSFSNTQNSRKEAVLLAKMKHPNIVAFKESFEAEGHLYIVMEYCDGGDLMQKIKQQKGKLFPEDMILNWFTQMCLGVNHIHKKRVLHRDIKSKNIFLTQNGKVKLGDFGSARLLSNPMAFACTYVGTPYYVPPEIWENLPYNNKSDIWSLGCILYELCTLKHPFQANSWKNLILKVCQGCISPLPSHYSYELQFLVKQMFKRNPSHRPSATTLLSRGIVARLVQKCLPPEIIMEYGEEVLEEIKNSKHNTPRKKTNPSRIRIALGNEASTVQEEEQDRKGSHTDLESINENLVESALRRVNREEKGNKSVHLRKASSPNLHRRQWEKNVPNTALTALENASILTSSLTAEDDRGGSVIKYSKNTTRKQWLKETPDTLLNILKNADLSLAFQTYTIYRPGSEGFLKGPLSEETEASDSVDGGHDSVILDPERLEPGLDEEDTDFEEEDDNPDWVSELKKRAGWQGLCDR
The note with it: NEK3, 1 μM; read-out: % control. Summed up: as §1

Assay [4] deals with T3, FLT3(D835V) (Homo sapiens, UniProt P36888, D835V).
T3 sequence (P36888 27-993 D835V): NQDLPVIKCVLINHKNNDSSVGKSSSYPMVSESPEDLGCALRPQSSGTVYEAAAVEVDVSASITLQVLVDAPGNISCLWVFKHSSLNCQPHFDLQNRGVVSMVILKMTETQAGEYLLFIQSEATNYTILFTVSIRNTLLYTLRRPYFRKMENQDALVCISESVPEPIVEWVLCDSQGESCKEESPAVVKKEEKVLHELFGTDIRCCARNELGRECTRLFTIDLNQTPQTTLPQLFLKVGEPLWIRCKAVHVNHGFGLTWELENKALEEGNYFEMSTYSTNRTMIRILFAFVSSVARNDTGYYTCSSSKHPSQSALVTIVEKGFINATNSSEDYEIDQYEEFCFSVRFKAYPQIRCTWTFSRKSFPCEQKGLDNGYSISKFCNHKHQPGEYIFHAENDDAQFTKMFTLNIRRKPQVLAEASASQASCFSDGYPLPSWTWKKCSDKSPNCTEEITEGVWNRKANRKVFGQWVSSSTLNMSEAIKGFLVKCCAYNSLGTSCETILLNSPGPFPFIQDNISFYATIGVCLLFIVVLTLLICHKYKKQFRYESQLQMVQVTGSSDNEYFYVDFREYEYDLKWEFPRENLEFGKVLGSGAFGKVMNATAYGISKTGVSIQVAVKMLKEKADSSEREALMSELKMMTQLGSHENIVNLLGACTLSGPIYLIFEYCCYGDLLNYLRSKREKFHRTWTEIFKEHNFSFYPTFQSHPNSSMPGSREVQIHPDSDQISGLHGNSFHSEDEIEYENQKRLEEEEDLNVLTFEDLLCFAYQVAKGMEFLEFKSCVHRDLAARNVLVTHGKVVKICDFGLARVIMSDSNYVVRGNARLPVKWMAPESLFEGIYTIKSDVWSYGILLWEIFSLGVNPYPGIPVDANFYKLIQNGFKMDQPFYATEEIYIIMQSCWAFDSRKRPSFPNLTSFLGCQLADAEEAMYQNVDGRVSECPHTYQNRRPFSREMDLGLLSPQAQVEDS
The note with it: read-out: % control. Summed up: as §1

Each structure is given as a SMILES string.

Chain of PRP4 (Q13523 whole entry): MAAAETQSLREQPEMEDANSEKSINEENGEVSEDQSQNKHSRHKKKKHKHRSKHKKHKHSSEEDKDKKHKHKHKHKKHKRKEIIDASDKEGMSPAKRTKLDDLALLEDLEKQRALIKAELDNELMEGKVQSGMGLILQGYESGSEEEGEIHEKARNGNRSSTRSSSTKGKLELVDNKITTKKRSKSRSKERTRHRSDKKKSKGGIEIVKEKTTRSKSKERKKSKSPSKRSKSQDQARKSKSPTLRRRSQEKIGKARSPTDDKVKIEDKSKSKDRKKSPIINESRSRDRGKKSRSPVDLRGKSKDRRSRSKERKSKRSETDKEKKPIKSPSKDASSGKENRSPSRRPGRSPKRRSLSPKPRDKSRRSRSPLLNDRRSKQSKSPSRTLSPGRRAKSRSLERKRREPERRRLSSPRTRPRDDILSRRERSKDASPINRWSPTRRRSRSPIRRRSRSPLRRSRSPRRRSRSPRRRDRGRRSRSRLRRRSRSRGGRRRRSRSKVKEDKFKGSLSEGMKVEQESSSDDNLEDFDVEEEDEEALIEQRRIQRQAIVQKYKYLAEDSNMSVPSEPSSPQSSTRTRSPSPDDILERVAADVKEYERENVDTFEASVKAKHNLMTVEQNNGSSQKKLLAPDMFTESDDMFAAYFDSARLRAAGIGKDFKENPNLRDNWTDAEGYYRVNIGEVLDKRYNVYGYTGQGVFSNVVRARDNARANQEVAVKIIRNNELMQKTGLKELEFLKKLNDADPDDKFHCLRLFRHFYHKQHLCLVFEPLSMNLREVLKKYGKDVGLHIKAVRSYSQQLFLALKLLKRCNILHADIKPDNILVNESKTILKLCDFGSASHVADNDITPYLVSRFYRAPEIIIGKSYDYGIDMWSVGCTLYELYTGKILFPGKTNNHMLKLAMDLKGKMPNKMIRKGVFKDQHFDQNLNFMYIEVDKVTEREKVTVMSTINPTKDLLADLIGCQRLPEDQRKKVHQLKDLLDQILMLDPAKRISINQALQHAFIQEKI

With `CNc1c(-c2cnn([C@H]3CCN(C(C)=O)C[C@@H]3F)c2)cnc2[nH]cc(Cl)c12` [Compound 77, 1-((3S,4S)-4-(4-(3-chloro-4-(methylamino)-1H-pyrrolo[2,3-b]pyridin-5-yl)-1H-pyrazol-1-yl)-3-fluoropiperidin-1-yl)ethan-1-one], the remaining binding at 1 µM turned out to be 14% in assay [1], 35% in assay [2], 68% in assay [3] and 0.5% in assay [4].

`CNc1c(-c2ccc(C(=O)N3CCC(N4CCOCC4)CC3)cc2)cnc2[nH]cc(Cl)c12` [Compound 96, (4-(3-chloro-4-(methylamino)-1H-pyrrolo[2,3-b]pyridin-5-yl)phenyl)(4-morpholinopiperidin-1-yl)methanone]: the remaining binding at 1 µM turned out to be 47% in assay [1], 36% in assay [2], 82% in assay [3] and 2.9% in assay [4].

For the compound `O=C(c1ccc(-c2cnc3[nH]cc(Cl)c3c2NC2CCCC2)cc1)N1CCC(N2CCOCC2)CC1` [Compound 101, (4-(3-chloro-4-(cyclopentylamino)-1H-pyrrolo[2,3-b]pyridin-5-yl)phenyl)(4-morpholinopiperidin-1-yl)methanone], the remaining binding at 1 µM in assay [1] is 38%; in assay [2], 82%; in assay [3], 95%; in assay [4], 6.4%.

The values are drawn from US12275731B2, “Azaindole inhibitors of wild-type and mutant forms of LRRK2” (DANA-FARBER CANCER INSTITUTE, INC., priority 2018, dated 2025).
